Target: T1, HDAC6 (Homo sapiens, UniProt Q9UBN7)
T1 sequence (Q9UBN7 1-1215): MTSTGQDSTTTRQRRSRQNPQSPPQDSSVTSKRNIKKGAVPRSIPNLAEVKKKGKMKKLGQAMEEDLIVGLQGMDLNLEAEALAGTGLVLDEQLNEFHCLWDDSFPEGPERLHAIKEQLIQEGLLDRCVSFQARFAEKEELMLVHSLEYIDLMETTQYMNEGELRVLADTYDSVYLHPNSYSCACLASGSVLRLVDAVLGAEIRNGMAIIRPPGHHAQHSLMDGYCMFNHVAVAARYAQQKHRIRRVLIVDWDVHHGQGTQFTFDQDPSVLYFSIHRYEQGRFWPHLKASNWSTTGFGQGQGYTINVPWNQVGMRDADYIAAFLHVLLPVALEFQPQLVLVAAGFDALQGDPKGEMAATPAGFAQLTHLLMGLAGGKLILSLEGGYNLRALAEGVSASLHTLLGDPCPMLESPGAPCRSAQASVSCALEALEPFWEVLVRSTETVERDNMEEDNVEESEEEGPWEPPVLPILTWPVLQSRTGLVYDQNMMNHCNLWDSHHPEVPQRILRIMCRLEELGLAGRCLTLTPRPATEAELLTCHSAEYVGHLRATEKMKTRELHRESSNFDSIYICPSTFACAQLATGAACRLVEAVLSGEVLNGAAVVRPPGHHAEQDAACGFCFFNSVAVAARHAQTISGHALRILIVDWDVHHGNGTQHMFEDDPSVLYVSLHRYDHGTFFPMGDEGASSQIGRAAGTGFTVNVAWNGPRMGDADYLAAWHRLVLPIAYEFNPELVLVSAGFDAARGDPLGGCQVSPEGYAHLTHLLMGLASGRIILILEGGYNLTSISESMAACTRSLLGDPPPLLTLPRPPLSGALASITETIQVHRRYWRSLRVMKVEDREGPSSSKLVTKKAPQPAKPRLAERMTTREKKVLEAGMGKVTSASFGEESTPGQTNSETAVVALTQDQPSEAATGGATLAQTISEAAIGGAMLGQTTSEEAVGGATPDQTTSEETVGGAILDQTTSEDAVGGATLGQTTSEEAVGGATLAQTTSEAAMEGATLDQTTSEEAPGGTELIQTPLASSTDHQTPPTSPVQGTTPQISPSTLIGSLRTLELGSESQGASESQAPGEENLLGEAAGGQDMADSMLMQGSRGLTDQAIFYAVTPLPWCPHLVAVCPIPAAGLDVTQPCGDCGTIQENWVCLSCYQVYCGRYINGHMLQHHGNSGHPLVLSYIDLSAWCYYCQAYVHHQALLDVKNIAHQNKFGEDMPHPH
Experiment: In vitro histone deacetylase assay: enzymatic HDAC6 electrophoretic mobility shift assay
Type: biochemical
Details: full length human recombinant HDAC6, 1 nM enzyme, 2 μM peptide substrate RHKK(Ac)-NH2, 25° C.; read-out: Inhibitory Concentration (IC50) Values for Representative Compounds against HDAC6, Activity Range
Experimental: The enzymatic HDAC6 assay was performed using electrophoretic mobility shift assay. […] The enzymatic reactions were assembled in 384 well plates in a total volume of 25 μL in a reaction buffer composing: 100 mM HEPES, pH7.5, 25 mM KCl, 0.1% bovine serum albumin, 0.01% Triton X-100, 1% DMSO (from compounds) 2 μM of the fluorescently labeled peptide substrate and enzyme. The enzyme was added at a final concentration of 1 nM. The peptide substrate RHKK(Ac)-NH2 was used. The compounds were tested at 12 concentrations spaced by 3× dilution intervals. Negative control samples (0%-inhibition in the absence of inhibitor) and positive control samples (100%-inhibition) were assembled in replicates of four in each assay plate. The reactions were incubated at 25° C. and quenched by the addition of 45 μL of termination buffer (100 mM HEPES, pH 7.5, 0.01% Triton X-100, 0.05% SDS).
The terminated assay plates were analyzed on LabChip® 3000 microfluidic electrophoresis instrument (Perkin Elmer/Caliper Life Sciences). The fluorescence intensity of the electrophoretically separated de-acetylated product and substrate peptide was measured. Activity in each sample was determined as the product to sum ratio (PSR): P/(S+P), where P is the peak height of the product peptide and S is the peak height of the substrate peptide. Percent inhibition (Pinh) is determined using the following equation:
Pinh=(PSR0%−PSRinh)/(PSR0%−PSR100%)*100, where PSRinh is the product sum ratio in the presence of inhibitor, PSR0% is the average product sum ration in the absence of inhibitor and PSR100% is the average product sum ratio in 100%-inhibition control samples. The IC50 values of inhibitors were determined by fitting the %-inhibition curves with 4 parameter dose-response model using XLfit 4 software.

O=C(NO)c1ccc2c(c1)OCCN(c1nc3ccccc3n1CC1CCCCC1)C2 and O=C(NO)c1ccc2c(c1)OCCN(c1nc3ccccc3n1CC1CCOCC1)C2 fall in the same range of IC50: 100 to 500 nM for the first, 100 to 500 nM for the second.

Going from O=C(NO)c1ccc2c(c1)OCCN(c1nc3ccccc3o1)C2 to CN(C(=O)N1CCOc2cc(C(=O)NO)ccc2C1)c1ccccc1, the IC50 rises from at most 100 nM to over 500 nM.

First: CN(C)CCN1CCOc2cc(C(=O)NO)ccc2C1
Second: COc1ccc(CN2CCOc3cc(C(=O)NO)ccc3C2)nc1
The IC50 of the first is higher: over 500 nM for the first, 100 to 500 nM for the second.

CC(C)(C)Oc1ccc(CN2CC(=O)Nc3ccc(C(=O)NO)cc3C2)cc1 and O=C1CN(Cc2ccccc2)Cc2cc(C(=O)NO)ccc2N1 [4-benzyl-N-hydroxy-2-oxo-2,3,4,5-tetrahydro-1H-benzo[e][1,4]diazepine-7-carboxamide] fall in the same range of IC50: 100 to 500 nM for the first, 100 to 500 nM for the second.

COc1ccc(OC(=O)N2CCOc3cc(C(=O)NO)ccc3C2)cc1 and C[C@H]1COc2cc(C(=O)NO)ccc2CN1C(=O)Oc1ccc(F)cc1 [4-fluorophenyl(S)-8-(hydroxycarbamoyl)-3-methyl-2,3-dihydrobenzo[f][1,4]oxazepine-4(5H)-carboxylate] cannot be ordered by IC50: at most 100 nM for the first, at most 100 nM for the second.

Compared with CC(C)N1CCC(CN2CC(=O)Nc3ccc(C(=O)NO)cc3C2)CC1, O=C1CN(Cc2ccnc(N3CCOCC3)c2)Cc2cc(C(=O)NO)ccc2N1 is lower in IC50: over 500 nM for the first, 100 to 500 nM for the second.

O=C1CN(Cc2ccc(-n3cccc3)cc2)Cc2cc(C(=O)NO)ccc2N1 and O=C1CN(Cc2ccc3ccccc3c2)Cc2cc(C(=O)NO)ccc2N1 cannot be ordered by IC50: at most 100 nM for the first, at most 100 nM for the second.

O=C1CN(Cc2ccc(-c3nccs3)cc2)Cc2cc(C(=O)NO)ccc2N1 and O=C1CN(Cc2ccn3ccnc3c2)Cc2cc(C(=O)NO)ccc2N1 cannot be ordered by IC50: at most 100 nM for the first, 100 to 500 nM for the second.

COc1ccc(CN2Cc3ccc(C(=O)NO)cc3OCC2(C)C)cc1 and COc1ccc(CN2Cc3ccc(C(=O)NO)cc3OC[C@H]2C(C)C)cc1 cannot be ordered by IC50: 100 to 500 nM for the first, at most 100 nM for the second.

COc1ccc(CN2CCOc3ccc(C(=O)NO)cc3C2)nc1 and COc1ccc(CN2CCOc3ccc(C(=O)NO)cc3C2)cn1 cannot be ordered by IC50: over 500 nM for the first, over 500 nM for the second.

COc1ccc(CN2CCOc3cc(C(=O)NO)ccc3C2)cn1 and COc1ccc(CN2Cc3ccc(C(=O)NO)cc3O[C@H](C)C2)cc1 fall in the same range of IC50: 100 to 500 nM for the first, 100 to 500 nM for the second.

O=C(NO)c1ccc2c(c1)OCCN(C(=O)N1CCCCC1)C2 and O=C(NO)c1ccc2c(c1)OCCN(S(=O)(=O)N1CCCCC1)C2 cannot be ordered by IC50: at most 100 nM for the first, at most 100 nM for the second.

Compared with C[C@@H]1CN(c2ccccc2)Cc2ccc(C(=O)NO)cc2O1, C[C@H]1CN(c2ccccc2)Cc2ccc(C(=O)NO)cc2O1 is higher in IC50: 100 to 500 nM for the first, over 500 nM for the second.

First: COc1ccc(S(=O)(=O)N2Cc3ccc(C(=O)NO)cc3O[C@H](C)C2)cc1
Second: COc1ccc(S(=O)(=O)N2Cc3ccc(C(=O)NO)cc3O[C@@H](C)C2)cc1
The IC50 of the first is lower: 100 to 500 nM for the first, over 500 nM for the second. The first is the more potent here.

COc1ccc(NC(=O)N2Cc3ccc(C(=O)NO)cc3O[C@H](C)C2)cc1 and COc1ccc(NC(=O)N2Cc3ccc(C(=O)NO)cc3O[C@@H](C)C2)cc1 cannot be ordered by IC50: 100 to 500 nM for the first, at most 100 nM for the second.

COc1ccc(CN2Cc3ccc(C(=O)NO)cc3O[C@@H](C)C2)cc1 and COc1ccc(CN2Cc3ccc(C(=O)NO)cc3OC[C@@H]2C(C)C)cc1 cannot be ordered by IC50: 100 to 500 nM for the first, at most 100 nM for the second.

CC(C)[C@@H]1COc2cc(C(=O)NO)ccc2CN1 and CC(C)[C@H]1COc2cc(C(=O)NO)ccc2CN1 cannot be ordered by IC50: at most 100 nM for the first, at most 100 nM for the second.

CC(C)[C@@H]1COc2cc(C(=O)NO)ccc2CN1C and CC(C)[C@H]1COc2cc(C(=O)NO)ccc2CN1C cannot be ordered by IC50: at most 100 nM for the first, at most 100 nM for the second.

CC(C)[C@@H]1COc2cc(C(=O)NO)ccc2CN1c1ccccc1 and CC(C)[C@H]1COc2cc(C(=O)NO)ccc2CN1c1ccccc1 cannot be ordered by IC50: 100 to 500 nM for the first, at most 100 nM for the second.

COc1ccc(NC(=O)N2Cc3ccc(C(=O)NO)cc3OC[C@H]2C(C)C)cc1 and COc1ccc(NC(=O)N2Cc3ccc(C(=O)NO)cc3OC[C@@H]2C(C)C)cc1 cannot be ordered by IC50: 100 to 500 nM for the first, at most 100 nM for the second.

COCCN(C)C(=O)N1Cc2ccc(C(=O)NO)cc2OC[C@@H]1C and COC[C@@H]1COc2cc(C(=O)NO)ccc2CN1C [(R)-N-hydroxy-3-(methoxymethyl)-4-methyl-2,3,4,5-tetrahydrobenzo[f][1,4]oxazepine-8-carboxamide] cannot be ordered by IC50: at most 100 nM for the first, at most 100 nM for the second.

Compared with O=C(NO)c1ccc2c(c1)OCCN(C(=O)OC1CCCCC1)C2, O=C(NO)c1ccc2c(c1)OCCN(C1CCCCC1)C2 [4-cyclohexyl-N-hydroxy-2,3,4,5-tetrahydrobenzo[f][1,4]oxazepine-8-carboxamide] is higher in IC50: at most 100 nM for the first, over 500 nM for the second.

CC(c1ccc(F)cc1)N1Cc2ccc(C(=O)NO)cc2OC[C@@H]1C (stereo partly drawn) [(3S)-4-(1-(4-fluorophenyl)ethyl)-N-hydroxy-3-methyl-2,3,4,5-tetrahydrobenzo[f][1,4]oxazepine-8-carboxamide] and COC[C@@H]1COc2cc(C(=O)NO)ccc2CN1c1ccccc1C [(R)-N-hydroxy-3-(methoxymethyl)-4-(o-tolyl)-2,3,4,5-tetrahydrobenzo[f][1,4]oxazepine-8-carboxamide] cannot be ordered by IC50: 100 to 500 nM for the first, at most 100 nM for the second.

C[C@H]1COc2cc(C(=O)NO)ccc2CN1CCC1CCCO1 (stereo partly drawn) [(3S)-N-hydroxy-3-methyl-4-(2-(tetrahydrofuran-2-yl)ethyl)-2,3,4,5-tetrahydrobenzo[f][1,4]oxazepine-8-carboxamide] and C[C@H]1COc2cc(C(=O)NO)ccc2CN1CC1CCCO1 (stereo partly drawn) [(3S)-N-hydroxy-3-methyl-4-((tetrahydrofuran-2-yl)methyl)-2,3,4,5-tetrahydrobenzo[f][1,4]oxazepine-8-carboxamide] cannot be ordered by IC50: at most 100 nM for the first, at most 100 nM for the second.

CC1CCCCN1C(=O)N1Cc2ccc(C(=O)NO)cc2OC[C@@H]1C (stereo partly drawn) [(3S)-N-hydroxy-3-methyl-4-(2-methylpiperidine-1-carbonyl)-2,3,4,5-tetrahydrobenzo[f][1,4]oxazepine-8-carboxamide] and CC1COCCN1C(=O)N1Cc2ccc(C(=O)NO)cc2OC[C@@H]1C (stereo partly drawn) [(3S)-N-hydroxy-3-methyl-4-(3-methylmorpholine-4-carbonyl)-2,3,4,5-tetrahydrobenzo[f][1,4]oxazepine-8-carboxamide] cannot be ordered by IC50: at most 100 nM for the first, at most 100 nM for the second.

Compared with COC1CCN(C(=O)N2Cc3ccc(C(=O)NO)cc3OC[C@@H]2C)C1 (stereo partly drawn) [(3S)-N-hydroxy-4-(3-methoxypyrrolidine-1-carbonyl)-3-methyl-2,3,4,5-tetrahydrobenzo[f][1,4]oxazepine-8-carboxamide], COc1ccc(NC(=O)N2Cc3ccc(C(=O)NO)cc3O[C@H](C(C)C)C2)cc1 [(R)-N8-hydroxy-2-isopropyl-N4-(4-methoxyphenyl)-2,3-dihydrobenzo[f][1,4]oxazepine-4,8(5H)-dicarboxamide] is higher in IC50: at most 100 nM for the first, over 500 nM for the second.

COC[C@H]1CN(C(=O)Nc2ccc(OC)cc2)Cc2ccc(C(=O)NO)cc2O1 [(R)-N8-hydroxy-2-(methoxymethyl)-N4-(4-methoxyphenyl)-2,3-dihydrobenzo[f][1,4]oxazepine-4,8(5H)-dicarboxamide] and COc1ccc(NC(=O)N2Cc3ccc(C(=O)NO)cc3O[C@H](c3ccccc3)C2)cc1 [(R)-N8-hydroxy-N4-(4-methoxyphenyl)-2-phenyl-2,3-dihydrobenzo[f][1,4]oxazepine-4,8(5H)-dicarboxamide] fall in the same range of IC50: 100 to 500 nM for the first, 100 to 500 nM for the second.
